Test [1] relates to cultured human mast cells. Briefly: Degranulation inhibition test using cultured human mast cells (IgE cross-linking, β-Hexosaminidase release). In kind it is cell-based. The settings on record: cultured human mast cells, anti-hIgE stimulation, β-Hexosaminidase index, average, read-out: human degranulation ave. IC50. In short, it runs like this:
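Degranulation was triggered by anti-hIgE (10 μg/mL final, 30 min, 37 °C) after a 10-min compound pretreatment (DMSO 0.1%) of cord-blood CD34+-derived mast cells primed 5 days with IL-4 and IgE. β-Hexosaminidase in supernatant was measured with p-nitrophenyl-GlcNAc substrate (A405), expressed against water-lysed total; IC50 (M).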

The target in test [2] is GST-Syk Full Protein (human) (Homo sapiens, UniProt P43405). Briefly: Syk kinase inhibition test (HTRF method). Format: biochemical. The settings on record: HTRF, 100 μM ATP, 30 min room temperature, average; read-out: sykHTRF ave IC50. In short, it runs like this:
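HTRF read-out: after EDTA termination and 1 h with XL665-streptavidin and Eu-anti-phosphotyrosine, the 665/620 nm ratio was measured. The reaction ran 30 min at 20–25 °C with final 6.4 nM human GST-Syk, 250 nM biotinylated peptide, 100 μM ATP, pH 7.0 HEPES buffer, 2% DMSO.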
(In general: TR-FRET usually uses a lanthanide donor and a delayed reading to cut background.)

Like-named read-outs stand apart in the source and are kept apart here. Some results are limits rather than exact numbers.

As usually defined, the IC50 is the midpoint of a concentration-inhibition curve. Take `Cc1ccnc(Nc2cccc(-c3cnc(Cc4ccc(CO)cc4)s3)n2)c1` [Compound A-243, (4-{5-[6-(4-methylpyridin-2-ylamino)pyridin-2-yl]thiazol-2-ylmethyl}phenyl)methanol]: the IC50 is 0.1 to 1 µM in test [1] (Mast cell) and under 0.1 µM in test [2].
The corresponding values for `Cc1ccnc(Nc2cccc(-c3cnc(Cc4ccc(C(=O)N5C[C@@H](O)[C@@H](O)C5)cc4)s3)n2)c1` [Compound A-244] are 0.1 to 1 µM and 0.1 to 1 µM.
With `Cc1ccnc(Nc2cccc(-c3cnc(CCN)s3)n2)c1` [Compound A-245], the IC50 in test [1] (Mast cell) and in test [2] was 0.1 to 1 µM throughout.
For `Cc1ccnc(Nc2cccc(-c3cnc(CN4CCN(C(=O)CO)CC4)s3)n2)c1` [Compound A-246], the IC50 in test [1] (Mast cell) and in test [2] was 0.1 to 1 µM in each case.
Regarding `Cc1ccnc(Nc2cccc(-c3cnc(CN4CCC(NC(=O)CO)CC4)s3)n2)c1` [Compound A-247], the IC50 in test [1] (Mast cell) and in test [2] was 0.1 to 1 µM in each case.
Take `Cc1ccnc(Nc2cccc(-c3cnc(Cc4cccnc4)s3)n2)c1` [Compound A-248, N-(4-methylpyridin-2-yl)-N-[6-(2-pyridin-3-ylmethylthiazol-5-yl)pyridin-2-yl]amine]: the IC50 in test [1] (Mast cell) is 0.1 to 1 µM; in test [2], under 0.1 µM.
For `Cc1ccnc(Nc2cccc(-c3cnc(CC4CCC(C(=O)O)CC4)s3)n2)c1` (stereo not drawn) [Compound A-249], in that order: 0.1 to 1 µM and 0.1 to 1 µM.
For `Cc1ccnc(Nc2cccc(-c3cnc(C4CCN(C(=O)N5CCC(=O)CC5)CC4)s3)n2)c1` [Compound A-250], the 50% inhibitory concentration (IC50) lay within 0.1 to 1 µM in test [1] (Homo sapiens, Mast cell) and 0.1 to 1 µM in test [2].
On to `Cc1ccnc(Nc2cccc(-c3cnc(C4CCN(C(=O)N5CCC(O)CC5)CC4)s3)n2)c1` [Compound A-251], for which the 50% inhibitory concentration (IC50) in test [1] (Mast cell) and in test [2] was 0.1 to 1 µM in each case.
As for `CCOC(=O)CNC(=O)NCc1ncc(-c2cccc(Nc3cc(C)ccn3)n2)s1` [Compound A-252], the IC50 in test [1] (Mast cell) and in test [2] was 0.1 to 1 µM each time.
With `Cc1ccnc(Nc2cccc(-c3cnc(CNC(=O)NCCO)s3)n2)c1` [Compound A-253], the IC50 in test [1] (Mast cell) and in test [2] was 0.1 to 1 µM each time.
In the case of `Cc1ccnc(Nc2cccc(-c3cnc(CNC(=O)NCC(=O)O)s3)n2)c1` [Compound A-254], the IC50 in test [1] (Mast cell) was over 1 µM; in test [2], 0.1 to 1 µM.
Regarding `Cc1ccnc(Nc2cccc(-c3cnc(CC(=O)N4C[C@@H](O)[C@@H](O)C4)s3)n2)c1` [Compound A-255], the IC50 in test [1] (Mast cell) and in test [2] was 0.1 to 1 µM in each case.
As to `CC(=O)NCCc1ncc(-c2cccc(Nc3cc(C)ccn3)n2)s1` [Compound A-256], the IC50 in test [1] (Mast cell) and in test [2] was 0.1 to 1 µM each time.
For the molecule `Cc1ccnc(Nc2cccc(-c3cnc(CCNC(=O)CO)s3)n2)c1` [Compound A-257], the IC50 in test [1] (Mast cell) and in test [2] was 0.1 to 1 µM each time.
On to `Cc1ccnc(Nc2cccc(-c3cnc(CCC4CCNCC4)s3)n2)c1` [Compound A-258, N-(4-methylpyridin-2-yl)-N-{6-[2-(2-piperidin-4-ylethyl)thiazol-5-yl]pyridin-2-yl}amine], for which the figures for the IC50 in test [1] (Mast cell) and in test [2] were over 1 µM and under 0.1 µM, respectively.
The corresponding values for `CC(=O)N1CCC(CCc2ncc(-c3cccc(Nc4cc(C)ccn4)n3)s2)CC1` [Compound A-259] are 0.1 to 1 µM and 0.1 to 1 µM.
Turning to `Cc1ccnc(Nc2cccc(-c3cnc(CCC4CCN(S(C)(=O)=O)CC4)s3)n2)c1` [Compound A-260, N-(6-{2-[2-(1-methanesulfonylpiperidin-4-yl)ethyl]thiazol-5-yl}pyridin-2-yl)-N-(4-methylpyridin-2-yl)amine], the IC50 in test [1] (Mast cell) is 0.1 to 1 µM; in test [2], under 0.1 µM.
Turning to `Cc1ccnc(Nc2cccc(-c3cnc(CCNS(C)(=O)=O)s3)n2)c1` [Compound A-261], the 50% inhibitory concentration (IC50) in test [1] (Mast cell) and in test [2] was 0.1 to 1 µM in each case.
In the case of `Cc1ccnc(Nc2cccc(-c3cnc(CNc4ccc(CC(=O)O)cc4)s3)n2)c1` [Compound A-262], the IC50 was over 1 µM in test [1] (Mast cell) and 0.1 to 1 µM in test [2].
On to `Cc1ccnc(Nc2cccc(-c3cnc(CCC4CCN(C(=O)CO)CC4)s3)n2)c1` [Compound A-263, 2-hydroxy-1-[4-(2-{5-[6-(4-methylpyridin-2-ylamino)pyridin-2-yl]thiazol-2-yl}ethyl)piperidin-1-yl]ethanone], for which the IC50 in test [1] (Mast cell) was 0.1 to 1 µM; in test [2], under 0.1 µM.
In the case of `Cc1ccnc(Nc2cccc(-c3cnc([C@H]4CC[C@H](C(=O)N(C)C)CC4)s3)n2)c1` [Compound A-264], the half-maximal inhibitory concentration (IC50) in test [1] (Mast cell) and in test [2] was 0.1 to 1 µM each time.
In the case of `CON(C)C(=O)[C@H]1CC[C@H](c2ncc(-c3cccc(Nc4cc(C)ccn4)n3)s2)CC1` [Compound A-265], the IC50 in test [1] (Mast cell) and in test [2] was 0.1 to 1 µM in each case.
Regarding `Cc1ccnc(Nc2cccc(-c3cnc(C4CCN(C(=O)NCCO)CC4)s3)n2)c1` [Compound A-266], the IC50 in test [1] (Mast cell) and in test [2] was 0.1 to 1 µM in each case.
Regarding `Cc1ccnc(Nc2cccc(-c3cnc([C@H]4CC[C@H](C(=O)NCCO)CC4)s3)n2)c1` [Compound A-267, N-(2-hydroxyethyl)-trans-4-{5-[6-(4-methylpyridin-2-ylamino)pyridin-2-yl]thiazol-2-yl}cyclohexanecarboxamide], the results for the IC50 in test [1] (Mast cell) and in test [2] were 0.1 to 1 µM and under 0.1 µM, respectively.
For `Cc1ccnc(Nc2cccc(-c3cnc([C@H]4CC[C@H](C(=O)NCCN5CCOCC5)CC4)s3)n2)c1` [Compound A-268, N-(2-morpholin-4-ylethyl)-trans-4-{5-[6-(4-methylpyridin-2-ylamino)pyridin-2-yl]thiazol-2-yl}cyclohexanecarboxamide], in that order: 0.1 to 1 µM and under 0.1 µM.
For the molecule `Cc1ccnc(Nc2cccc(-c3cnc(CC4CCC(C(=O)N5CCC(O)CC5)CC4)s3)n2)c1` (stereo not drawn) [Compound A-269], the IC50 in test [1] (Mast cell) and in test [2] was 0.1 to 1 µM in each case.
In the case of `Cc1ccnc(Nc2cccc(-c3cnc(C4CCCC(C(=O)O)C4)s3)n2)c1` (stereo not drawn) [Compound A-270], the IC50 in test [1] (Mast cell) was over 1 µM; in test [2], 0.1 to 1 µM.
With `Cc1ccnc(Nc2cccc(-c3cnc(C4CCCC(C(=O)N5CCC(O)CC5)C4)s3)n2)c1` (stereo not drawn) [Compound A-271], the IC50 in test [1] and in test [2] was 0.1 to 1 µM in each case.
With `Cc1ccnc(Nc2cccc(-c3cnc(C4CCCC(C(=O)N5CCC(O)CC5)C4)s3)n2)c1` (stereo not drawn) [Compound A-272], the concentration for half-maximal inhibition (IC50) in test [1] (Mast cell) and in test [2] was 0.1 to 1 µM each time.
As to `Cc1ccnc(Nc2cccc(-c3cnc(C4CCCC(C(=O)N5C[C@@H](O)[C@@H](O)C5)C4)s3)n2)c1` (stereo partly drawn) [Compound A-273], the IC50 in test [1] (Mast cell) is over 1 µM; in test [2], 0.1 to 1 µM.
The corresponding values for `Cc1ccnc(Nc2cccc(-c3cnc([C@H]4CC[C@H](C(=O)N5CCCCC5)CC4)s3)n2)c1` [Compound A-274] are over 1 µM and 0.1 to 1 µM.
As to `Cc1ccnc(Nc2cccc(-c3cnc([C@H]4CC[C@H](C(=O)N5CCOCC5)CC4)s3)n2)c1` [Compound A-275], the IC50 in test [1] (Mast cell) and in test [2] was 0.1 to 1 µM throughout.
For `Cc1ccnc(Nc2cccc(-c3cnc(CCc4cccc(C(=O)O)c4)s3)n2)c1` [Compound A-276], the IC50 is over 1 µM in test [1] (Mast cell) and 0.1 to 1 µM in test [2].
In the case of `Cc1ccnc(Nc2cccc(-c3cnc(CCc4cccc(CO)c4)s3)n2)c1` [Compound A-277, [3-(2-{5-[6-(4-methylpyridin-2-ylamino)pyridin-2-yl]thiazol-2-yl}ethyl)phenyl]methanol], the concentration for half-maximal inhibition (IC50) was 0.1 to 1 µM in test [1] (Mast cell) and under 0.1 µM in test [2].
With `Cc1ccnc(Nc2cccc(-c3cnc(CNc4ccc(CC(=O)N5CCC(O)CC5)cc4)s3)n2)c1` [Compound A-278], the IC50 in test [1] (Mast cell) is over 1 µM; in test [2], 0.1 to 1 µM.
The corresponding values for `Cc1ccnc(Nc2cccc(-c3cnc([C@H]4CC[C@H](C(=O)NCCc5ccccn5)CC4)s3)n2)c1` [Compound A-279] are 0.1 to 1 µM and 0.1 to 1 µM.
The corresponding values for `COC1CCN(C(=O)[C@H]2CC[C@H](c3ncc(-c4cccc(Nc5cc(C)ccn5)n4)s3)CC2)CC1` [Compound A-280] are 0.1 to 1 µM and 0.1 to 1 µM.
Regarding `Cc1ccnc(Nc2cccc(-c3cnc([C@H]4CC[C@H](C(=O)N5CCC(O)C5)CC4)s3)n2)c1` (stereo partly drawn) [Compound A-282, (3-hydroxypyrrolidin-1-yl)-(trans-4-{5-[6-(4-methylpyridin-2-ylamino)pyridin-2-yl]thiazol-2-yl}cyclohexyl)methanone], the IC50 in test [1] (Mast cell) was 0.1 to 1 µM; in test [2], under 0.1 µM.
Regarding `Cc1ccnc(Nc2cccc(-c3cnc([C@H]4CC[C@H](C(=O)N5CCNC(=O)C5)CC4)s3)n2)c1` [Compound A-283, 4-(trans-4-{5-[6-(4-methylpyridin-2-ylamino)pyridin-2-yl]thiazol-2-yl}cyclohexanecarbonyl)piperazin-2-one], the IC50 in test [1] (Mast cell) was over 1 µM; in test [2] it was under 0.1 µM.
As for `CC(=O)NC1CCN(C(=O)[C@H]2CC[C@H](c3ncc(-c4cccc(Nc5cc(C)ccn5)n4)s3)CC2)C1` (stereo partly drawn) [Compound A-284], the IC50 in test [1] (Mast cell) and in test [2] was 0.1 to 1 µM each time.
Take `Cc1ccnc(Nc2cccc(-c3cnc([C@H]4CC[C@H](C(=O)N5CCC[C@H]5CO)CC4)s3)n2)c1` [Compound A-285]: the IC50 in test [1] (Mast cell) and in test [2] was 0.1 to 1 µM each time.

(Values after US7803801B2, “Aminopyridine compounds having Syk inhibitory activity” (Japan Tobacco, Inc., priority 2005, dated 2010).)
